From patent US11524003B2, “Alpha-amino esters of hydroxypropylthiazolidine carboxamide derivative and salt form, crystal polymorph thereof” (ObsEva S.A., priority 2016, dated 2022)
≈ marks a conversion by molar mass, not a printed value. Read-outs that look alike come from different tables or passages of the source.

Experiments:
Caco-2 cell monolayer = experiment: Bidirectional permeability across Caco-2 cell monolayers; assay type: in vitro ADME, human
Protocol: (§1) Compound I was dissolved in HBSS buffer (1% DMSO final concentration) at the concentrations of 1.5, 3 and 6 μM. Each concentration/sampling time was run in duplicate well. The test was performed in a gradient pH: the apical compartment (mucosal) was at pH 6.5, the basolateral compartment (serosal) was at pH 7.4.
(§2) Apical to basolateral (A→B, mucosal to serosal) transport: 200 μL of each concentration of compound I was added to the apical compartment and 400 μL of HBSS was added to the basolateral compartment. The plates were incubated at 37° C. An aliquot of the basolateral compartment was sampled after 60 and 120 min (t=60 and t=120). An aliquot of the apical compartment was sampled at the starting time (t=0) and after 120 min. (t=120).
(§3) Basolateral to apical (B→A, serosal to mucosal) transport: 400 μL of each concentration of compound I was added to the basolateral compartment and 200 μL of HBSS was added to the apical compartment. The plates were incubated at 37° C. An aliquot of the apical compartment was sampled after 60 and 120 min (t=60 and t=120). An aliquot of the basolateral compartment was sampled at the starting time (t=0) and after 120 min. (t=120). All samples were analyzed by LC/MS monitoring both compound I and the appearance of compound II.
as §1, with “II” for “I”
as §2, with “II” for “I”
as §3, with “of compound II was added” for “of compound I was added”, “LC/MS monitoring compound II.” for “LC/MS monitoring both compound I and the appearance of compound II.”

[1] = Stability in HBSS buffer of the Caco-2 experiments; assay type: in vitro ADME; settings: HBSS buffer (2% DMSO final concentration) at 37° C. for 60 and 120 minutes
Protocol: Stability of both compound I and compound II was assessed during the test. […] An aliquot of each solution was sampled at time zero (t=0) to assess the starting concentrations of the compounds. The solutions were incubated at 37° C. for the duration of the transport experiment. An aliquot of each solution was sampled at the end of experiment (t=120) to assess the final concentrations of compound I and compound II. Samples were analyzed by LC-MS.

PepT1 transporter = target: T1, PepT1 transporter (Homo sapiens, UniProt P46059); experiment: Mucosal-to-serosal transport in Caco-2 after pre-treatment with PepT1 substrate Gly-Sar; assay type: in vitro ADME
T1 construct: host or cells: Caco-2
T1 sequence (P46059 1-708): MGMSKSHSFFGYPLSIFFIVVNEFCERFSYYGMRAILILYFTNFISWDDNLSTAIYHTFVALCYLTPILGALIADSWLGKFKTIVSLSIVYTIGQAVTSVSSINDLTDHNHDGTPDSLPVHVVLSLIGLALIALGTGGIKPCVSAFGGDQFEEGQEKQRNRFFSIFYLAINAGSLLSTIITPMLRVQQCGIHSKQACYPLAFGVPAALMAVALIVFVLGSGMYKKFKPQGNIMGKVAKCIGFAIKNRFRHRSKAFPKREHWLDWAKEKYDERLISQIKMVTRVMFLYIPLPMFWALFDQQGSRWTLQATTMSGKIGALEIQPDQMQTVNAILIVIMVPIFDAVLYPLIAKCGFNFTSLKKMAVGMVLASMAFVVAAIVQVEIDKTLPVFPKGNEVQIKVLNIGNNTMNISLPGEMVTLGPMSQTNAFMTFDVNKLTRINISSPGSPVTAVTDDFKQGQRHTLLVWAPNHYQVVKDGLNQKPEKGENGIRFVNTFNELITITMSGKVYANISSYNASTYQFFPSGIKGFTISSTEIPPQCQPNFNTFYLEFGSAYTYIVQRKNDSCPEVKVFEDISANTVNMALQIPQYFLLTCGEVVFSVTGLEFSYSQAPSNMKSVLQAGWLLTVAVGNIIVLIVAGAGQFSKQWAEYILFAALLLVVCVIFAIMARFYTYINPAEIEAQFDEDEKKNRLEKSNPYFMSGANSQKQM
Protocol: The differentiated cells were pre-treated for 30 min. with 10 mM of Gly-Sar in order to block the active transporter PepT1.
as §1, with “[…].” for “μM.”
Apical to basolateral (A→B, mucosal to serosal) transport: 200 μL of each concentration of compound I was added to the apical compartment and 400 μL of HBSS was added to the basolateral compartment. The plates were incubated at 37° C. An aliquot of the basolateral compartment was sampled after 60 and 120 min (t=60 and t=120). An aliquot of the apical compartment was sampled at the starting time (t=0) and after 120 min. (t=120). All samples were analyzed by LC/MS monitoring both compound I and the appearance of compound II.

[2] = Solubility in water, FaSSIF and FeSSIF; assay type: physicochemical
[3] = system: spontaneous uterine contractions; experiment: Spontaneous uterine activity in late-term anaesthetized pregnant rat; assay type: in vivo; settings: late-term pregnant rats
From the text: The tocolytic effects of compound I and compound II were investigated in a model of spontaneous uterine activity in late-term (19-21 days of gestation) anaesthetized pregnant rat (Kawarabayashi et al. Am. J. Obstet. Gynecol. 175:1348-1355 (1996) and Shinkai et al. J. Pharm. Pharmacol. 52:1417-1423 (2000)). Briefly, late-term pregnant female rats were anaesthetized with urethane. One pregnant uterine horn was exposed and a polyethylene catheter bearing on the tip a latex balloon filled with saline was inserted into the lumen. The catheter was connected to an amplifying/recording system via a pressure-transducer. […] The percent variation of the AUC values relative to the spontaneous uterine response observed after each compound administration was calculated in comparison to the value recorded before the first dose-administration (basal value). The effect of compound I or compound II was evaluated by comparing pre- and post-treatment luminal uterine pressure values. For the oral administration the same computation procedure was applied at different time points after treatment. Statistical differences between treatment groups at each time-point were determined by using one-way ANOVA followed by Tukey test. Both compounds intravenously or orally administered were able to markedly reduce spontaneous uterine

[4] = Non-specific binding to cell-free transwells; assay type: in vitro ADME; settings: 1.5, 3 and 6 μM; apical pH 6.5, basolateral pH 7.4
Protocol: Non-specific binding and recovery was assessed across cell-free transwells.
Compound I was tested at 1.5, 3 and 6 μM in duplicate cell-free transwells. The test was performed in a pH gradient between the apical and the basolateral compartment. […] The following sampling times were performed: 60 and 120 min for the basolateral compartment (receiver) and 120 min for the apical compartment (donor). Samples obtained were analyzed by LC-MS, both compound I and compound II were monitored in order to assess percent of recovery.

[5] = In vivo conversion of compound I to compound II
Protocol: The invention is based on the discovery that compound I ((3S)-3-({[(2S)-3-(biphenyl-4-ylsulfonyl)-1,3-thiazolidin-2-yl]carbonyl}-amino)-3-(4-fluorophenyl)propyl L-valinate, represented by formula I, below) and salts thereof are converted in vivo to 3-([1,1′-biphenyl]-4-ylsulfonyl)-N-[1-(4-fluorophenyl)-3-hydroxypropyl]-1,3-thiazolidine-2-carboxamide (represented by formula II, below).
Compound II is a competitive and reversible prostaglandin F2α receptor antagonist (human FP2α receptor Ki=6 nM) that is under development for the management of preterm labor by inhibition of premature uterine contractions.

SMILES: CC(C)[C@H](N)C(=O)OCC[C@H](NC(=O)[C@@H]1SCCN1S(=O)(=O)c1ccc(-c2ccccc2)cc1)c1ccc(F)cc1 [Compound I, (3S)-3-({[(2S)-3-(biphenyl-4-ylsulfonyl)-1,3-thiazolidin-2-yl]carbonyl}-amino)-3-(4-fluorophenyl)propyl L-valinate]
- Conversion of compound I into compound II in Caco-2 test (Caco-2 cell monolayer): confirmed
- Compound I in receiving (apical) compartment, basolateral to apical (Caco-2 cell monolayer; 60 and 120 minutes): not detected
- Compound I in receiving (basolateral) compartment, apical to basolateral (Caco-2 cell monolayer; 60 and 120 minutes): not detected
- Recovery of compound I in apical compartment at end of apical to basolateral experiment (Caco-2 cell monolayer; 120 min): low recovery
- Passage through the Caco-2 cell monolayer (Caco-2 cell monolayer; bi-directional test): did not pass through the cell monolayer
- Stability in HBSS buffer [1]: stable
- PepT1 mediation of transport across Caco-2 monolayers (PepT1 transporter): likely not mediated by PepT1
- Compound I in receiving compartment after Gly-Sar pre-treatment (PepT1 transporter; 10 mM Gly-Sar, A→B, 60 and 120 min): not detected
- solubility ([2]; FaSSIF, pH 6.5 (fasted state), read-out: Solubility in FaSSIF pH 6.5): 70 µg/mL (≈ 117 µM)
- solubility ([2]; FeSSIF, pH 5.0 (fed state), read-out: Solubility in FeSSIF pH 5.0): 90 µg/mL (≈ 150 µM)
- Effect on spontaneous uterine contraction (FIG. 2) [3]: dose-dependent and reversible effect
- Non-specific binding in the Caco-2 test system without cells [4]: excluded
- Conversion to compound II after gastro-intestinal tract administration [5]: rapidly converted to compound II
